These results are taken from PubChem BioAssay (NCI).

The structures appear in SMILES notation.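 In this assay, cells in 96-well plates receive the compound at five concentrations for 48 hours. Endpoints are linearly interpolated between the surrounding concentrations. GI50 is the concentration that inhibits growth by half. TGI marks complete inhibition of growth.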 Bounds are passed on as bounds.

Test systems include SF-268 CNS; LOX IMVI melanoma; U251 CNS; HT29 colon; SK-MEL-2 melanoma; UO-31 renal; MOLT-4 leukemia; SK-MEL-5 melanoma; MDA-MB-231 breast; IGROV1 ovarian.
Holding throughout (experiment): growth of human tumour cells (NCI), 48 h

Regarding `Cc1ccc([P+](Cc2ccc([N+](=O)[O-])cc2)(c2ccc(C)cc2)c2ccc(C)cc2)cc1`, the GI50 with SF-268 CNS was 3.45 µM; in the experiment with LOX IMVI melanoma, 2.32 µM; with U251 CNS, 2.56 µM; in the experiment with HT29 colon it was 2.51 µM; in the experiment with SK-MEL-2 melanoma it was 1.96 µM; in the experiment on UO-31 renal, 13.3 µM. The GI50 in the experiment with MOLT-4 leukemia was 5.97 µM; with SK-MEL-5 melanoma it was 1.22 µM; with MDA-MB-231 breast, 1.46 µM; in the experiment on IGROV1 ovarian, 2.53 µM. The TGI in the experiment on SF-268 CNS turned out to be 14 µM; in the experiment with LOX IMVI melanoma, 12.5 µM; in the experiment with U251 CNS it was 12.2 µM; in the experiment on HT29 colon, 12.8 µM; in the experiment on SK-MEL-2 melanoma, 4.51 µM; with UO-31 renal, 31.5 µM. The TGI worked out at 29.3 µM in the experiment with MOLT-4 leukemia, 2.52 µM in the experiment on SK-MEL-5 melanoma, 7.38 µM in the experiment with MDA-MB-231 breast and 14.8 µM with IGROV1 ovarian.

Turning to `Cc1cc(CS(=O)(=O)/C=C/c2ccccc2[N+](=O)[O-])c(CS(=O)(=O)/C=C/c2ccccc2[N+](=O)[O-])cc1C`, the TGI in the experiment on SF-268 CNS was > 100 µM; in the experiment on LOX IMVI melanoma, > 100 µM; with U251 CNS, 71.3 µM; with HT29 colon it was > 100 µM; in the experiment on SK-MEL-2 melanoma it was 36.5 µM; in the experiment with UO-31 renal it was > 100 µM. The TGI in the experiment with MOLT-4 leukemia was > 100 µM; in the experiment on SK-MEL-5 melanoma it was > 100 µM; with MDA-MB-231 breast it was > 51.2 µM; in the experiment on IGROV1 ovarian it was > 100 µM.

For `COc1cc[nH]c1/C=C1\C(=O)Nc2ccc(F)c(C#CC3(O)CCOCC3)c21`, the GI50 was 0.714 µM with SF-268 CNS; 0.537 µM in the experiment on LOX IMVI melanoma; 0.519 µM in the experiment on U251 CNS; 0.501 µM in the experiment on HT29 colon; 0.47 µM in the experiment with SK-MEL-2 melanoma; 0.512 µM in the experiment on UO-31 renal. The GI50 was 0.679 µM with MOLT-4 leukemia, 0.497 µM in the experiment on SK-MEL-5 melanoma, 0.885 µM with MDA-MB-231 breast and 0.86 µM in the experiment on IGROV1 ovarian. Also, the TGI with SF-268 CNS was 2.03 µM; in the experiment on LOX IMVI melanoma, 1.77 µM; with U251 CNS it was 5.43 µM; with HT29 colon it was 2.81 µM; in the experiment on SK-MEL-2 melanoma, 2.14 µM; in the experiment on UO-31 renal, > 6.99 µM. In addition, the TGI was 2.92 µM in the experiment on MOLT-4 leukemia, 1.19 µM in the experiment on SK-MEL-5 melanoma, > 25 µM in the experiment on MDA-MB-231 breast and > 7.18 µM in the experiment with IGROV1 ovarian.

For the compound `CC(CS(=O)(=O)Cc1ccccc1)C(N)=O` (stereo not given), the TGI in the experiment on SF-268 CNS, in the experiment on LOX IMVI melanoma, with U251 CNS, with HT29 colon, with SK-MEL-2 melanoma and in the experiment with UO-31 renal was > 100 µM each time. The TGI in the experiment on MOLT-4 leukemia, in the experiment on SK-MEL-5 melanoma, with MDA-MB-231 breast and with IGROV1 ovarian was > 100 µM throughout.

As to `Cc1c(C(C)C)cc(OCCO)cc1C(C)C`, the TGI in the experiment with SF-268 CNS is > 100 µM; in the experiment on LOX IMVI melanoma, 63.4 µM; in the experiment with U251 CNS, > 100 µM; in the experiment with HT29 colon, 81.1 µM; with SK-MEL-2 melanoma, 57.3 µM; with UO-31 renal, > 100 µM. Besides, the TGI with MOLT-4 leukemia was > 100 µM; in the experiment with SK-MEL-5 melanoma it was 38.1 µM; in the experiment with MDA-MB-231 breast it was 80 µM; in the experiment with IGROV1 ovarian, > 100 µM.
